Data reported in US9474790B2, “Stable, protracted GLP-1/glucagon receptor co-agonists for medical use” (Novo Nordisk A/S, priority 2013, dated 2016).
Numbered stars: 1 amine (or outer) side, 2 acyl side, 3 side chain; on linkers, the order of the positions; unused ones are H or OH. Bridge positions count the residues as written; N and C are the ends. Square brackets hold non-standard residues; d marks the D form. Side chains are listed from the residue outwards. Peptide text beside a SMILES is read from it. I, II: the chains in the order shown. * marks the point of attachment. C18 diacid = O=C(O)CCCCCCCCCCCCCCCCC(=O)*; γGlu = O=C(O)[C@H](CCC(=O)[*:2])N[*:1]; Ac4c = NC1(C(=O)O)CCC1; AEEA = NCCOCCOCC(=O)O; Aib = CC(C)(N)C(=O)O

Assays:
[1] = target: T1, human GLP-1 receptor (Homo sapiens, UniProt P43220); assay: GLP-1 receptor potency, CRE luciferase reporter gene assay in BHK cells; type: cell-based; conditions: BHK cells expressing human GLP-1 receptor, read-out: EC50 GLP-1R
T1 construct: expressed in transfected cells; host or cells: BHK cells (parent BHKTS13), clone FCW467-12A/KZ10-1, with CRE luciferase
T1 sequence (P43220 24-463): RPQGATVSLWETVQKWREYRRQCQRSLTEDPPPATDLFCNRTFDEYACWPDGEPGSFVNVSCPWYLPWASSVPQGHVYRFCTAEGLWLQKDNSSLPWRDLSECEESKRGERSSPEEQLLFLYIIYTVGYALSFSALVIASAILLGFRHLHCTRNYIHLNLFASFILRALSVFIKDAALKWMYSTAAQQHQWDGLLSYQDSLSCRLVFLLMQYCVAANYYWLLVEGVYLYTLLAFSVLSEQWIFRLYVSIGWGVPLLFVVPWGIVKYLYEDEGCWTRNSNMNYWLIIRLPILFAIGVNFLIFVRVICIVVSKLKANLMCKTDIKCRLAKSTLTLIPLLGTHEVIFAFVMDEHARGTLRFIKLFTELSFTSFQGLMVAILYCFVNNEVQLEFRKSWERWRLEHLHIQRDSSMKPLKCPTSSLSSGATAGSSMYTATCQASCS
Summary of the method: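 Potency as cAMP-driven firefly luciferase signal after 3 h, 37° C exposure to 10-fold dilutions (final 1×10EE-13–1×10EE-6 M). Stable hGLP-1R/CRE-luc BHK clone, 5×10EE3 cells/well, medium containing 2% ovalbumin and 0.2% Pluronic F-68; EC50 (pM) from variable-slope non-linear regression.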

[2] = target: T2, human glucagon receptor (Homo sapiens, UniProt P47871); assay: Glucagon receptor potency, CRE luciferase reporter gene assay in BHK cells; type: cell-based; conditions: BHK cells expressing human glucagon receptor, read-out: EC50 GlucR
T2 construct: expressed in transfected cells; host or cells: BHK cells (parent BHK570, CRE luciferase clone BHK/KZ10-20-48), clone pLJ6'-4-25
T2 sequence (P47871 26-477): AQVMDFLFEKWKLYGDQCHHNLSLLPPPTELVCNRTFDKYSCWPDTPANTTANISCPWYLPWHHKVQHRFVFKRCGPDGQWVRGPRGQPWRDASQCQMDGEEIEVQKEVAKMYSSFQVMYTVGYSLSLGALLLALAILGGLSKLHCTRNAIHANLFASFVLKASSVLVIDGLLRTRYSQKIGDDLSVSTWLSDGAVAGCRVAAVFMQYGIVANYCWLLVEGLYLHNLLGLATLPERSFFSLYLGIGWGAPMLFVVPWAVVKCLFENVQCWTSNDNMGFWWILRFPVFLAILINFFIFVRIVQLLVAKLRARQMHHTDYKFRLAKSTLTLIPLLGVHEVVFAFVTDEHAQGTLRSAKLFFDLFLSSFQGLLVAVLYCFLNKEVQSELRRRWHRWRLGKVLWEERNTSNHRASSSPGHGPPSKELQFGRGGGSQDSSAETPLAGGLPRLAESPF
Summary of the method: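 EC50 (pM) comes from a four-parameter fit of luciferase luminescence after 3 h at 37 °C with compound at final 1×10EE-13–1×10EE-6 M. Cells: BHK570-derived line carrying human glucagon receptor plus CRE-luciferase, 5×10EE3/well, in assay medium with 2% ovalbumin, 0.2% Pluronic F-68.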

SMILES | EC50 [1] | EC50 [2]
CC(C)C[C@H](NC(=O)[C@H](Cc1ccc(O)cc1)NC(=O)[C@H](CCCCN)NC(=O)[C@H](CO)NC(=O)[C@H](CC(C)C)NC(=O)[C@H](CC(=O)O)NC(=O)[C@H](CO)NC(=O)[C@@H](NC(=O)[C@H](Cc1ccccc1)NC(=O)[C@@H](NC(=O)CNC(=O)[C@H](CCC(N)=O)NC(=O)C(C)(C)NC(=O)[C@@H](N)Cc1c[nH]cn1)[C@@H](C)O)[C@@H](C)O)C(=O)N[C@@H](CCC(=O)O)C(=O)N[C@@H](CO)C(=O)N[C@@H](CCCNC(=N)N)C(=O)N[C@@H](CCCNC(=N)N)C(=O)N[C@@H](C)C(=O)N[C@@H](CCCNC(=N)N)C(=O)N[C@@H](CCC(=O)O)C(=O)N[C@@H](Cc1ccccc1)C(=O)N[C@H](C(=O)N[C@@H](CCC(N)=O)C(=O)N[C@@H](Cc1c[nH]c2ccccc12)C(=O)N[C@@H](CC(C)C)C(=O)N[C@@H](CC(C)C)C(=O)N[C@@H](CCCCNC(=O)CC[C@H](NC(=O)CC[C@H](NC(=O)CC[C@H](NC(=O)CCCCCCCCCCCCCCCCC(=O)O)C(=O)O)C(=O)O)C(=O)O)C(=O)N[C@H](C(N)=O)[C@@H](C)O)C(C)C [Example 41, N^ε28-[(4S)-4-carboxy-4-[[(4S)-4-carboxy-4-[[(4S)-4-carboxy-4-(17-carboxyheptadecanoylamino)butanoyl]amino]butanoyl]amino]butanoyl]-[Aib2,Leu10,Glu15, Arg20,Glu21,Leu27,Lys28]-Glucagon amide] (H-H[Aib]QGTFTSDLSKYLESRRAREFVQWLLK([γGlu-γGlu-γGlu-C18 diacid])T-NH2; N-terminus assumed) | 7 pM | 29 pM
CC(C)C[C@H](NC(=O)[C@H](Cc1ccc(O)cc1)NC(=O)[C@H](CCCCN)NC(=O)[C@H](CO)NC(=O)[C@H](CC(C)C)NC(=O)[C@H](CC(=O)O)NC(=O)[C@H](CO)NC(=O)[C@@H](NC(=O)[C@H](Cc1ccccc1)NC(=O)[C@@H](NC(=O)CNC(=O)[C@H](CCC(N)=O)NC(=O)C(C)(C)NC(=O)[C@@H](N)Cc1c[nH]cn1)[C@@H](C)O)[C@@H](C)O)C(=O)N[C@@H](CC(=O)O)C(=O)N[C@@H](C)C(=O)N[C@@H](CCCNC(=N)N)C(=O)N[C@@H](CCCNC(=N)N)C(=O)N[C@@H](C)C(=O)N[C@@H](CCCNC(=N)N)C(=O)N[C@@H](CCC(=O)O)C(=O)N[C@@H](Cc1ccccc1)C(=O)N[C@H](C(=O)N[C@@H](CCC(N)=O)C(=O)N[C@@H](Cc1c[nH]c2ccccc12)C(=O)N[C@@H](CC(C)C)C(=O)N[C@@H](CC(C)C)C(=O)N[C@@H](CCCCNC(=O)CC[C@H](NC(=O)CC[C@H](NC(=O)COCCOCCNC(=O)COCCOCCNC(=O)CC[C@H](NC(=O)CCCCCCCCCCCCCCCCC(=O)O)C(=O)O)C(=O)O)C(=O)O)C(=O)N[C@H](C(N)=O)[C@@H](C)O)C(C)C [Example 43, N^ε28-[(4S)-4-carboxy-4-[[(4S)-4-carboxy-4-[[2-[2-[2-[[2-[2-[2-[[(4S)-4-carboxy-4-(17-carboxyheptadecanoylamino)butanoyl]amino]ethoxy]ethoxy]acetyl]amino]ethoxy]ethoxy]acetyl]amino]butanoyl]amino]butanoyl]-[Aib2,Leu10,Ala16,Arg20,Glu21,Leu27,Lys28]-Glucagon amide] (H-H[Aib]QGTFTSDLSKYLDARRAREFVQWLLK([γGlu-γGlu-AEEA-AEEA-γGlu-C18 diacid])T-NH2; N-terminus assumed) | 5 pM | 2 pM

These reach a lower EC50 [1]. Values come first.

EC50 [1] | EC50 [2] | SMILES
4 pM | 2 pM | CC(C)C[C@H](NC(=O)[C@H](Cc1ccc(O)cc1)NC(=O)[C@H](CCCCN)NC(=O)[C@H](CO)NC(=O)[C@H](CC(C)C)NC(=O)[C@H](CC(=O)O)NC(=O)[C@H](CO)NC(=O)[C@@H](NC(=O)[C@H](Cc1ccccc1)NC(=O)[C@@H](NC(=O)CNC(=O)[C@H](Cc1c[nH]cn1)NC(=O)C(C)(C)NC(=O)[C@@H](N)Cc1c[nH]cn1)[C@@H](C)O)[C@@H](C)O)C(=O)N[C@@H](CCC(=O)O)C(=O)N[C@@H](CO)C(=O)N[C@@H](CCCNC(=N)N)C(=O)N[C@@H](CCCNC(=N)N)C(=O)N[C@@H](C)C(=O)N[C@@H](CCCNC(=N)N)C(=O)N[C@@H](CC(=O)O)C(=O)N[C@@H](Cc1ccccc1)C(=O)N[C@H](C(=O)N[C@@H](CCC(N)=O)C(=O)N[C@@H](Cc1c[nH]c2ccccc12)C(=O)N[C@@H](CC(C)C)C(=O)N[C@@H](CC(C)C)C(=O)N[C@@H](CCCCNC(=O)CNC(=O)[C@H](CO)NC(=O)[C@H](CCC(=O)O)NC(=O)CNC(=O)[C@H](CO)NC(=O)CC[C@H](NC(=O)CC[C@H](NC(=O)CCCCCCCCCCCCCCCCC(=O)O)C(=O)O)C(=O)O)C(=O)N[C@H](C(N)=O)[C@@H](C)O)C(C)C [Example 37, N^ε28-[2-[[(2S)-2-[[(2S)-4-carboxy-2-[[2-[[(2S)-2-[[(4S)-4-carboxy-4-[[(4S)-4-carboxy-4-(17-carboxyheptadecanoylamino)butanoyl]amino]butanoyl]amino]-3-hydroxypropanoyl]amino]acetyl]amino]butanoyl]amino]-3-hydroxypropanoyl]amino]acetyl]-[Aib2,His3,Leu10,Glu15, Arg20,Leu27,Lys28]-Glucagon amide] (I: H-H[Aib]HGTFTSDLSKYLESRRARDFVQWLLKT-NH2 / II: {C18 diacid-γGlu-γGlu}-SGESG; amide I:28-II:C; N-terminus assumed)
3 pM | 32 pM | CC(C)C[C@H](NC(=O)[C@H](Cc1ccc(O)cc1)NC(=O)[C@H](CCCCN)NC(=O)[C@H](CO)NC(=O)[C@H](CC(C)C)NC(=O)[C@H](CC(=O)O)NC(=O)[C@H](CO)NC(=O)[C@@H](NC(=O)[C@H](Cc1ccccc1)NC(=O)[C@@H](NC(=O)CNC(=O)[C@H](CCC(N)=O)NC(=O)C(C)(C)NC(=O)[C@@H](N)Cc1c[nH]cn1)[C@@H](C)O)[C@@H](C)O)C(=O)N[C@@H](CCC(=O)O)C(=O)N[C@@H](CO)C(=O)N[C@@H](CCCNC(=N)N)C(=O)N[C@@H](CCCNC(=N)N)C(=O)N[C@@H](C)C(=O)N[C@@H](CCCNC(=N)N)C(=O)N[C@@H](CCC(=O)O)C(=O)N[C@@H](Cc1ccccc1)C(=O)N[C@H](C(=O)N[C@@H](CCC(N)=O)C(=O)N[C@@H](Cc1c[nH]c2ccccc12)C(=O)N[C@@H](CC(C)C)C(=O)N[C@@H](CC(C)C)C(=O)N[C@@H](CCCCNC(=O)COCCOCCNC(=O)COCCOCCNC(=O)CC[C@H](NC(=O)CC[C@H](NC(=O)CC[C@H](NC(=O)CCCCCCCCCCCCCCCCC(=O)O)C(=O)O)C(=O)O)C(=O)O)C(=O)N[C@H](C(N)=O)[C@@H](C)O)C(C)C [Example 42, N^ε28-[2-[2-[2-[[2-[2-[2-[[(4S)-4-carboxy-4-[[(4S)-4-carboxy-4-[[(4S)-4-carboxy-4-(17-carboxyheptadecanoylamino)butanoyl]amino]butanoyl]amino]butanoyl]amino]ethoxy]ethoxy]acetyl]amino]ethoxy]ethoxy]acetyl]-[Aib2,Leu10,Glu15,Arg20,Glu21,Leu27,Lys28]-Glucagon amide] (H-H[Aib]QGTFTSDLSKYLESRRAREFVQWLLK([AEEA-AEEA-γGlu-γGlu-γGlu-C18 diacid])T-NH2; N-terminus assumed)
3 pM | 10 pM | CC(C)C[C@H](NC(=O)[C@H](Cc1ccc(O)cc1)NC(=O)[C@H](CCCCN)NC(=O)[C@H](CO)NC(=O)[C@H](CC(C)C)NC(=O)[C@H](CC(=O)O)NC(=O)[C@H](CO)NC(=O)[C@@H](NC(=O)[C@H](Cc1ccccc1)NC(=O)[C@@H](NC(=O)CNC(=O)[C@H](CCC(N)=O)NC(=O)C1(NC(=O)[C@@H](N)Cc2c[nH]cn2)CCC1)[C@@H](C)O)[C@@H](C)O)C(=O)N[C@@H](CCC(=O)O)C(=O)N[C@@H](CO)C(=O)N[C@@H](CCCNC(=N)N)C(=O)N[C@@H](CCCNC(=N)N)C(=O)N[C@@H](C)C(=O)N[C@@H](CCCNC(=N)N)C(=O)N[C@@H](CCC(=O)O)C(=O)N[C@@H](Cc1ccccc1)C(=O)N[C@H](C(=O)N[C@@H](CCC(N)=O)C(=O)N[C@@H](Cc1c[nH]c2ccccc12)C(=O)N[C@@H](CC(C)C)C(=O)N[C@@H](CC(C)C)C(=O)N[C@@H](CCCCNC(=O)CC[C@H](NC(=O)CC[C@H](NC(=O)COCCOCCNC(=O)COCCOCCNC(=O)CC[C@H](NC(=O)CCCCCCCCCCCCCCCCC(=O)O)C(=O)O)C(=O)O)C(=O)O)C(=O)N[C@H](C(N)=O)[C@@H](C)O)C(C)C [Example 44, N^ε28-[(4S)-4-carboxy-4-[[(4S)-4-carboxy-4-[[2-[2-[2-[[2-[2-[2-[[(4S)-4-carboxy-4-(17-carboxyheptadecanoylamino)butanoyl]amino]ethoxy]ethoxy]acetyl]amino]ethoxy]ethoxy]acetyl]amino]butanoyl]amino]butanoyl]-[Acb2,Leu10,Glu15,Arg20,Glu21,Leu27,Lys28]-Glucagon amide] (H-H[Ac4c]QGTFTSDLSKYLESRRAREFVQWLLK([γGlu-γGlu-AEEA-AEEA-γGlu-C18 diacid])T-NH2; N-terminus assumed)
